Assay results published in ChEMBL document CHEMBL1138436, “Biological activity and chemistry of taxoids from the Japanese yew, Taxus cuspidata” (J Nat Prod, 2004).
Converted amounts (≈) assume the structure as drawn.

System: not listed separately
Assay: Reversal of multidrug resistance in human 2780AD cells assessed as increase in vincristine accumulation relative to verapamil
Type: functional, A2780 ADR
Design: concentration or dose not given beside the values

Going from `C=C1[C@@H](O)CC[C@@]2(C)[C@@H](OC(C)=O)[C@H](OC(C)=O)C3=C(C)[C@@H](OC(=O)c4ccccc4)C[C@@H]([C@@H](OC(C)=O)[C@H]12)C3(C)C` to `C=C1[C@@H](OC(=O)c2ccccc2)CC[C@@]2(C)[C@@H](OC(C)=O)[C@H](OC(C)=O)C3=C(C)[C@@H](O)C[C@@H]([C@@H](OC(C)=O)[C@H]12)C3(C)C`, the Activity rises from 87% to 88%.

`CC(=O)O[C@@H]1[C@@H]2CC(=O)C(C)=C([C@@H](OC(C)=O)[C@H](OC(C)=O)[C@]3(C)CC[C@H](O)[C@@]4(CO4)[C@@H]13)C2(C)C` and `CC(=O)O[C@@H]1[C@@H]2CC(=O)C(C)=C([C@@H](OC(C)=O)[C@H](OC(C)=O)[C@]3(C)CC[C@H](O)[C@]4(CO4)[C@@H]13)C2(C)C` are the same in Activity: 28% for the first, 28% for the second.

First: C=C1[C@@H](OC(=O)/C=C/c2ccccc2)CC[C@@]2(C)[C@@H](OC(C)=O)[C@H](OC(C)=O)C3=C(C)[C@@H](OC(=O)/C=C/c4ccccc4)C[C@@H]([C@@H](OC(C)=O)[C@H]12)C3(C)C
Second: C=C1[C@@H](O)CC[C@@]2(C)[C@@H](OC(C)=O)[C@H](OC(C)=O)C3=C(C)[C@@H](OC(=O)/C=C/c4ccccc4)C[C@@H]([C@@H](OC(C)=O)[C@H]12)C3(C)C
The Activity of the first is lower: 28% for the first, 95% for the second.

`C=C1[C@@H](OC(=O)/C=C/c2ccccc2)CC[C@@]2(C)[C@H]3OC(C)(C)O[C@@H]3C3=C(C)C(=O)C[C@@H]([C@@H](OC(=O)/C=C/c4ccccc4)[C@H]12)C3(C)C` and `C=C1[C@@H](OC(=O)/C=C/c2ccccc2)CC[C@@]2(C)[C@H]3OC(C)(C)O[C@@H]3C3=C(C)C(=O)C[C@@H]([C@@H](OC(=O)c4ccccc4)[C@H]12)C3(C)C` are the same in Activity: 28% for the first, 28% for the second.

Compared with `C=C1[C@@H](O[Si](CC)(CC)CC)CC[C@@]2(C)[C@@H](OC(C)=O)[C@H](OC(C)=O)C3=C(C)C(=O)C[C@@H]([C@@H](OC(C)=O)[C@H]12)C3(C)C`, `CC[Si](CC)(CC)O[C@H]1CC[C@@]2(C)[C@@H](OC(C)=O)[C@H](OC(C)=O)C3=C(C)C(=O)C[C@@H]([C@@H](OC(C)=O)[C@@H]2[C@@]12CO2)C3(C)C` is higher in Activity: 91% for the first, 101% for the second.

`C=C1[C@@H](OC(=O)c2ccccc2)CC[C@@]2(C)[C@@H](OC(=O)c3ccccc3)[C@H](OC(=O)c3ccccc3)C3=C(C)C(=O)C[C@@H]([C@@H](OC(C)=O)[C@H]12)C3(C)C` and `C=C1[C@@H](OC(=O)/C=C/c2ccccc2)CC[C@@]2(C)[C@@H](OC(=O)c3ccccc3)[C@H](OC(=O)c3ccccc3)C3=C(C)C(=O)C[C@@H]([C@@H](OC(C)=O)[C@H]12)C3(C)C` are the same in Activity: 28% for the first, 28% for the second.

Going from `C=C1[C@@H](OC(=O)C[C@H](c2ccccc2)N(C)C)C[C@H](OC(C)=O)[C@]2(C)[C@@H]1C[C@@H]1C[C@H](OC(C)=O)C(C)=C([C@@H](OC(C)=O)[C@@H]2OC(C)=O)C1(C)C` to `C=C1[C@@H](OC(=O)C[C@H](c2ccccc2)N(C)C)CC[C@]2(C)[C@@H]1C[C@@H]1C[C@H](OC(C)=O)C(C)=C([C@@H](OC(C)=O)[C@@H]2OC(C)=O)C1(C)C`, the Activity rises from 114% to 119%.

`C=C1[C@@H](O)CC[C@@]2(C)[C@@H](OC(C)=O)[C@H](OC(C)=O)C3=C(C)[C@H](O)C[C@@H]([C@@H](OC(C)=O)[C@H]12)C3(C)C` and `C=C1[C@@H](O)CC[C@@]2(C)[C@@H](OC(C)=O)[C@H](OC(C)=O)C3=C(C)[C@@H](O)C[C@@H]([C@@H](OC(C)=O)[C@H]12)C3(C)C` are the same in Activity: 28% for the first, 28% for the second.

Compared with `C=C1[C@@H](OC(=O)/C=C/c2ccccc2)CC[C@@]2(C)[C@@H](OC(C)=O)[C@H](OC(C)=O)[C@@]34[C@H](C)C(=O)C[C@@H]([C@@H](OC(C)=O)[C@@]132)C4(C)C` [TAXUSPINE C], `C=C1[C@@H](OC(=O)c2ccccc2)CC[C@@]2(C)[C@@H](OC(C)=O)[C@H](OC(C)=O)[C@@]34[C@H](C)C(=O)C[C@@H]([C@@H](OC(C)=O)[C@@]132)C4(C)C` is higher in Activity: 104% for the first, 125% for the second.

First: C=C1[C@@H](OC(=O)c2ccccc2)CC[C@@]2(C)[C@@H](OC(C)=O)[C@H](OC(C)=O)C3=C(C)C(=O)C[C@@H]([C@@H](OC(C)=O)[C@H]12)C3(C)C
Second: C=C1[C@@H](OC(=O)CCc2ccccc2)CC[C@@]2(C)[C@@H](OC(C)=O)[C@H](OC(C)=O)C3=C(C)C(=O)C[C@@H]([C@@H](OC(C)=O)[C@H]12)C3(C)C
The Activity of the first is lower: 87% for the first, 227% for the second.

Going from `CC(=O)O[C@H]1C[C@H]2[C@@H](OC(C)=O)/C=C3\C[C@](C)(C(=O)[C@H](O)C(=C1C)C2(C)C)[C@@H](OC(C)=O)C[C@@H]3OC(=O)/C=C/c1ccccc1` [TAXUSPINE B] to `CC(=O)OC/C1=C\[C@H](OC(C)=O)[C@@H]2C[C@H](OC(C)=O)C(C)=C([C@@H](O)/C(OC(C)=O)=C(\C)[C@@H](OC(C)=O)C[C@@H]1OC(=O)/C=C/c1ccccc1)C2(C)C` [TAXUSPINE X], the Activity rises from 96% to 105%.

Compared with `C=C1[C@@H](OC(=O)/C=C/c2ccccc2)C[C@H](OC(C)=O)[C@]2(C)[C@@H]1C[C@]1(C(C)(C)O)C[C@H](OC(C)=O)C(C)=C1[C@@H](OC(C)=O)[C@@H]2OC(C)=O` [TAXUSPINE J], `C=C1[C@@H](OC(=O)/C=C/c2ccccc2)C[C@H](OC(C)=O)[C@]2(C)[C@@H]1C[C@@H]1C[C@H](OC(C)=O)C(C)=C([C@@H](OC(C)=O)[C@@H]2OC(C)=O)C1(C)C` is lower in Activity: 114% for the first, 108% for the second.

First: C=C1[C@@H](OC(=O)/C=C/c2ccccc2)C[C@H](OC(C)=O)[C@]2(C)[C@@H]1C[C@@H]1C[C@H](O)C(C)=C([C@@H](OC(C)=O)[C@@H]2OC(C)=O)C1(C)C [TAXEZOPIDINE H]
Second: C=C1[C@@H](O)CC[C@@]2(C)[C@@H](OC(C)=O)[C@H](OC(C)=O)C3=C(C)C(=O)C[C@@H]([C@@H](OC(=O)/C=C/c4ccccc4)[C@H]12)C3(C)C
The Activity of the first is higher: 106% for the first, 98% for the second.

First: C=C1[C@@H](OC(=O)C[C@H](c2ccccc2)N(C)C)CC[C@@]2(C)[C@@H](OC(C)=O)[C@H](OC(C)=O)C3=C(C)[C@@H](OC(C)=O)C[C@@H]([C@@H](O)[C@H]12)C3(C)C [TAXUSPINE Z]
Second: C=C1[C@@H](OC(=O)C[C@H](c2ccccc2)N(C)C)CC[C@@]2(C)[C@@H](OC(C)=O)[C@H](OC(C)=O)C3=C(C)C(=O)C[C@@H]([C@@H](OC(C)=O)[C@H]12)C3(C)C [TAXINE II]
The Activity of the first is higher: 106% for the first, 95% for the second.

`C=C1[C@@H](OC(=O)/C=C/c2ccccc2)CC[C@@]2(C)[C@@H](OC(=O)/C=C/c3ccccc3)[C@H](OC(=O)/C=C/c3ccccc3)C3=C(C)C(=O)C[C@@H]([C@@H](OC(=O)/C=C/c4ccccc4)[C@H]12)C3(C)C` and `C=C1[C@@H](OC(=O)/C=C/c2ccccc2)CC[C@@]2(C)[C@@H](OC(=O)/C=C/c3ccccc3)[C@H](OC(=O)/C=C/c3ccccc3)C3=C(C)C(=O)C[C@@H]([C@@H](OC(C)=O)[C@H]12)C3(C)C` are the same in Activity: 28% for the first, 28% for the second.

Compared with `CC[Si](CC)(CC)O[C@H]1CC[C@@]2(C)[C@@H](OC(C)=O)[C@H](OC(C)=O)C3=C(C)C(=O)C[C@@H]([C@@H](OC(C)=O)[C@@H]2[C@]12CO2)C3(C)C`, `CC(=O)O[C@@H]1[C@@H]2CC(=O)C(C)=C([C@@H](OC(C)=O)[C@H](OC(C)=O)[C@]3(C)CC[C@H](OC(=O)/C=C/c4ccccc4)[C@@]4(CO4)[C@@H]13)C2(C)C` is higher in Activity: 102% for the first, 139% for the second.

In the case of `C=C1[C@@H](OCOCc2ccccc2)CC[C@@]2(C)[C@@H](OC(C)=O)[C@H](OC(C)=O)C3=C(C)C(=O)C[C@@H]([C@@H](OC(C)=O)[C@H]12)C3(C)C`, the Activity is reported as 150%.

System: KB
Assay: Cytotoxicity against human KB cells
Type: functional, cell-based

`C/C=C(\C)C(=O)N[C@@H](c1ccccc1)[C@@H](O)C(=O)O[C@H]1C[C@@]2(O)[C@@H](OC(=O)c3ccccc3)[C@@H]3[C@]4(OC(C)=O)CO[C@@H]4C[C@H](O)[C@@]3(C)C(=O)[C@H](O)C(=C1C)C2(C)C` and `CCCCCC(=O)N[C@@H](c1ccccc1)[C@@H](O)C(=O)O[C@H]1C[C@@]2(O)[C@@H](OC(=O)c3ccccc3)[C@@H]3[C@]4(OC(C)=O)CO[C@@H]4C[C@H](O)[C@@]3(C)C(=O)[C@H](O)C(=C1C)C2(C)C` [10-DEACETYLTAXAYUNNANINE A] are the same in IC50: 0.0015 µg/mL (≈ 0.0019 µM) for the first, 0.0015 µg/mL (≈ 0.00186 µM) for the second.

`C=C1[C@H]2C[C@]3(C(C)(C)O)C[C@H](O)C(C)=C3[C@@H](OC(=O)c3ccccc3)[C@H](OC(C)=O)[C@]2(C)[C@@H](OC(C)=O)C[C@@H]1O` [BREVIFOLIOL] and `C/C=C(\C)C(=O)O[C@@H]1C2=C(C)[C@@H](O)C[C@@](C(C)(C)O)([C@@H](OC(C)=O)[C@@H]3[C@]4(OC(C)=O)CO[C@@H]4C[C@H](OC(C)=O)[C@@]3(C)[C@H]1OC(C)=O)C2(C)C` [TAXUSPINE Q] are the same in IC50: 0.08 µg/mL (≈ 0.144 µM) for the first, 0.08 µg/mL (≈ 0.115 µM) for the second.

`C=C1[C@@H](O)CC[C@@]2(C)[C@@H](OC(C)=O)[C@H](OC(C)=O)C3=C(C)C(=O)C[C@@](O)([C@@H](OC(C)=O)[C@H]12)C3(C)C` and `CC(=O)O[C@H]1C[C@H]2[C@@H](OC(C)=O)/C=C3\C[C@](C)(C(=O)[C@H](O)C(=C1C)C2(C)C)[C@@H](OC(C)=O)C[C@@H]3O` [TAXUSPINE W] are the same in IC50: 0.08 µg/mL (≈ 0.162 µM) for the first, 0.08 µg/mL (≈ 0.162 µM) for the second.

`C=C1[C@@H](OC(=O)/C=C/c2ccccc2)C[C@H](OC(C)=O)[C@@]2(C)[C@@H](OC(C)=O)[C@H](OC(C)=O)[C@]3(O)[C@@]4(C)CO[C@]3(C)C(=O)C[C@H]4[C@@H](OC(C)=O)[C@H]12` [TAXAGIFINE] and `C=C1[C@@H](OC(=O)/C=C/c2ccccc2)C[C@H](OC(C)=O)[C@@]2(COC(C)=O)[C@@H](OC(C)=O)[C@H](O)[C@]3(O)[C@@]4(C)CO[C@]3(C)C(=O)C[C@H]4[C@@H](OC(C)=O)[C@H]12` [TAXUSPINE T] are the same in IC50: 0.08 µg/mL (≈ 0.115 µM) for the first, 0.08 µg/mL (≈ 0.112 µM) for the second.

`CC(=O)O[C@@]12CO[C@@H]1C[C@H](O)[C@@]1(C)C(=O)[C@H](O)C3=C(C)[C@@H](OC(=O)[C@H](O)[C@@H](NC(=O)c4ccccc4)c4ccccc4)C[C@@](O)([C@@H](OC(=O)c4ccccc4)[C@H]21)C3(C)C` and `CC(=O)O[C@H]1C(=O)[C@]2(C)[C@H](O)C[C@H]3OC[C@@]3(OC(C)=O)[C@H]2[C@H](OC(=O)c2ccccc2)[C@]2(O)C[C@H](OC(=O)[C@H](O)[C@@H](NC(=O)c3ccccc3)c3ccccc3)C(C)=C1C2(C)C` are the same in IC50: 0.0015 µg/mL (≈ 0.00185 µM) for the first, 0.0015 µg/mL (≈ 0.00176 µM) for the second.

Work on `CC(=O)O[C@H]1C(=O)[C@@]2(C)[C@H]([C@H](OC(=O)c3ccccc3)[C@]3(O)C[C@H](OC(=O)[C@H](O)[C@@H](NC(=O)c4ccccc4)c4ccccc4)C(C)=C1C3(C)C)[C@]1(OC(C)=O)CO[C@@H]1C[C@@H]2O` [PACLITAXEL] yielded an IC50 of 0.0015 µg/mL (≈ 0.00176 µM).
